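GI50 is the concentration that inhibits growth by half. The concentration for full growth arrest is given as TGI.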
Experiments:
Experiment in all cases: growth of human tumour cells (NCI), 384-well format
[1] = tested on: EKVX NSCLC
[2] = tested on: COLO 205 colon
[3] = tested on: SN12C renal
[4] = tested on: SF-539 CNS
[5] = tested on: MDA-MB-468 breast
[6] = tested on: HCT-116 colon
[7] = tested on: SF-268 CNS
[8] = tested on: MCF7 breast
[9] = tested on: SNB-19 CNS
[10] = tested on: NCI-H460 NSCLC
[11] = tested on: A549 NSCLC
[12] = tested on: KM12 colon
[13] = tested on: UACC-62 melanoma
[14] = tested on: HT29 colon
[15] = tested on: MALME-3M melanoma
[16] = tested on: NCI-H23 lung
[17] = tested on: OVCAR-5 ovarian
[18] = tested on: IGROV1 ovarian
[19] = tested on: SK-MEL-5 melanoma
[20] = tested on: U251 glioblastoma
[21] = tested on: MOLT-4 leukemia
[22] = tested on: MDA-MB-435 melanoma
[23] = tested on: DU-145 prostate
[24] = tested on: UACC-257 melanoma
[25] = tested on: HOP-92 NSCLC
[26] = tested on: 786-0 renal
[27] = tested on: HL-60(TB) leukemia
[28] = tested on: T-47D breast
[29] = tested on: M14 melanoma
[30] = tested on: K-562 leukemia
[31] = tested on: NCI-H226 lung
[32] = tested on: NCI-H322M lung
[33] = tested on: MDA-MB-231 breast
[34] = tested on: BT-549 breast
[35] = tested on: PC-3 prostate
[36] = tested on: TK-10 renal
[37] = tested on: NCI/ADR-RES ovarian
[38] = tested on: SK-MEL-28 melanoma
[39] = tested on: NCI-H522 lung
[40] = tested on: A498 renal
[41] = tested on: SNB-75 CNS
[42] = tested on: SW-620 colon
[43] = tested on: UO-31 renal
[44] = tested on: LOX IMVI melanoma
[45] = tested on: SF-295 CNS
[46] = tested on: HOP-62 NSCLC
[47] = tested on: ACHN renal

Molecule CS(=O)(=O)c1ccc(-c2cnc(NCc3ccco3)n3cnnc23)cc1 has a GI50 [1] greater than 100 µM, a TGI [1] greater than 100 µM and a GI50 [2] of 35.8 µM. It also gave a TGI [2] greater than 100 µM, a GI50 [3] greater than 100 µM and a TGI [3] greater than 100 µM. For the same molecule, the GI50 [4] was greater than 100 µM, the TGI [4] was greater than 100 µM and the GI50 [5] was 17.3 µM. The TGI [5] was 49.3 µM, the GI50 [6] was greater than 100 µM and the TGI [6] was greater than 100 µM. For the same molecule, the GI50 [7] was greater than 100 µM, the TGI [7] was greater than 100 µM and the GI50 [8] was greater than 100 µM. The TGI [8] was greater than 100 µM, the GI50 [9] was greater than 100 µM and the TGI [9] was greater than 100 µM. It also gave a GI50 [10] greater than 100 µM, a TGI [10] greater than 100 µM and a GI50 [11] greater than 100 µM. The TGI [11] was greater than 100 µM, the GI50 [12] was greater than 100 µM and the TGI [12] was greater than 100 µM. It also gave a GI50 [13] of 27.1 µM, a TGI [13] greater than 100 µM and a GI50 [14] of 61.3 µM. It also gave a TGI [14] greater than 100 µM, a GI50 [15] of 16.9 µM and a TGI [15] of 45.3 µM. The GI50 [16] was greater than 100 µM, the TGI [16] was greater than 100 µM and the GI50 [17] was greater than 100 µM. The TGI [17] was greater than 100 µM, the GI50 [18] was greater than 100 µM and the TGI [18] was greater than 100 µM. The GI50 [19] was 37.2 µM, the TGI [19] was greater than 100 µM and the GI50 [20] was greater than 100 µM. The TGI [20] was greater than 100 µM, the GI50 [21] was 49 µM and the TGI [21] was greater than 100 µM. It also gave a GI50 [22] greater than 87.3 µM, a TGI [22] greater than 100 µM and a GI50 [23] greater than 100 µM. The TGI [23] was greater than 100 µM, the GI50 [24] was 52.1 µM and the TGI [24] was greater than 100 µM. The GI50 [25] was greater than 55.1 µM, the TGI [25] was greater than 100 µM and the GI50 [26] was greater than 100 µM. It also gave a TGI [26] greater than 100 µM, a GI50 [27] of 72.2 µM and a TGI [27] greater than 100 µM. For the same molecule, the GI50 [28] was 66.3 µM, the TGI [28] was greater than 100 µM and the GI50 [29] was 29.6 µM. It also gave a TGI [29] greater than 100 µM, a GI50 [30] greater than 95.2 µM and a TGI [30] greater than 100 µM. It also gave a GI50 [31] greater than 100 µM, a TGI [31] greater than 100 µM and a GI50 [32] greater than 100 µM. It also gave a TGI [32] greater than 100 µM, a GI50 [33] greater than 100 µM and a TGI [33] greater than 100 µM. It also gave a GI50 [34] greater than 100 µM, a TGI [34] greater than 100 µM and a GI50 [35] greater than 100 µM. The TGI [35] was greater than 100 µM, the GI50 [36] was greater than 100 µM and the TGI [36] was greater than 100 µM. It also gave a GI50 [37] greater than 100 µM, a TGI [37] greater than 100 µM and a GI50 [38] of 30.3 µM. It also gave a TGI [38] greater than 100 µM, a GI50 [39] greater than 100 µM and a TGI [39] greater than 100 µM. For the same molecule, the GI50 [40] was greater than 100 µM, the TGI [40] was greater than 100 µM and the GI50 [41] was greater than 100 µM. For the same molecule, the TGI [41] was greater than 100 µM, the GI50 [42] was greater than 100 µM and the TGI [42] was greater than 100 µM. For the same molecule, the GI50 [43] was greater than 100 µM, the TGI [43] was greater than 100 µM and the GI50 [44] was 52.8 µM. The TGI [44] was greater than 100 µM, the GI50 [45] was greater than 100 µM and the TGI [45] was greater than 100 µM. The GI50 [46] was greater than 100 µM, the TGI [46] was greater than 100 µM and the GI50 [47] was greater than 100 µM. It also gave a TGI [47] greater than 100 µM.

— PubChem BioAssay (NCI)
